The values that follow come from patent publication US5004756A, “Anti-cancer activity potentiator” (priority 1988, dated 1991).

Values after ≈ are worked out from the molar mass of the structure shown. *1 amine or outer side, *2 acyl side, *3 side chain or, on linkers, in order; H or OH if unused. Where a SMILES comes first, the peptide text is derived from it. Bridges are numbered along the chain shown (N, C = ends). Roman numbers before positions name the chains, in order. [ ]: non-standard residue; d: D form. Actinocin(9to1) = Cc1c2oc3c(C)ccc(C(=O)[*:1])c3nc-2c(C(=O)[*:2])c(N)c1=O; NMeV = CN[C@H](C(=O)O)C(C)C; Sar = CNCC(=O)O

Assay [1] has as its system V79/ADM. Briefly: Anti-cancer activity potentiating action, colony formation, V79/ADM resistant cells (A-III). In kind it is cell-based, Chinese hamster. Conditions: for IC50: Cricetulus griseus. How it is done:
(§1) The anti-cancer activity potentiating action of the malate of formula (I) was examined using Chinese hamster cells (sensitive cell line V79/S and ADM-resistant cell line V79/ADM), human hepatoma cells (sensitive cell line PLC/S and colchicin-resistant cell line PLC/Col) and mouse leukemia cells (sensitive cell line L5178Y/S) and aclarubicin-resistant cell line L5178Y/ACR).
(§2) Of these tumor cells, the sensitive cells (400 cells) and the resistant cells (600 cells) were each incubated in 10 ml of Eagle's MEM medium containing 10% bovine serum for 24 hours, and then each of the test drugs indicated in Table 6 was added. Thereafter, the incubation was carried out for 9 days. The concentration (IC50 : micrograms/ml) of the test drug required to inhibit 50% of the colony formation (proliferation) of the tumor cells was calculated.
(§3) (A) Chinese hamster V79 cells
(§4) As anti-cancer agents, there were used adriamycin (ADM), aclarubicin (ACR), actinomycin D (ACD), 5-fluorouracil (5-FU), cytarabin (Ara-C), cisplatin (CDDP), methotrexate (MTX), mitomycin C (MMC), nimustine (ACNU), mitoxantrone, etoposide ([…]), vincristine (VCR), bleomycin (BLM) and peplomycin (PEP). For the sensitive cells, the anti-cancer agents were used in combination with 10 micrograms/ml of the malate of formula (I), and for the resistant cells, the anti-cancer agents were used in combination with the malate of formula (I) 3 micrograms/ml, 5 micrograms/ml, and 10 micrograms/ ml.

The test system of assay [2] is V79/S. Briefly: Anti-cancer activity potentiating action, colony formation, V79/S parent cells (A-III). The class given is cell-based, Chinese hamster. Conditions: for IC50: Cricetulus griseus. How it is done:
as §1, §2, §3, §4

Assay [3] has as its system clinically isolated human cancer cells (lung adenocarcinoma, lung squamous cell carcinoma, osteosarcoma, ovarian carcinoma). In words: Anti-tumor activity on clinically isolated human cancer cells, morphological changes (A-I Part 2). The class given is cell-based.
Method: Lung adenocarcinoma, lung squamous cell carcinoma, osteosarcoma and ovarian carcinoma were selected as clinically isolated human cancer cells, and the anti-tumor activities of various drugs were examined. Specifically, various tumor tissues were individually cut to thin pieces by a razor, and by washing in saline by using a 1 mm mesh, the connective tissues were removed. The resulting solution was centrifuged at 1000 rpm for 1 minute to remove necrotizing substances. Washing with saline gave tumor cells.
They were incubated at 37° for 4 to 8 hours. Thereafter, pumping was carried out to disperse the tissue pieces. Then, centrifugation at 1000 rpm for 5 minutes, cell coating and Giemsa staining were performed. The anti-tumor activity of each drug was examined on the basis of observation of the morphological changes of the tumor cells under a microscope.
The experiment was conducted on two examples of each tumor cells (total 8 examples).
Assay [4] deals with P388 mouse leukemia cells. In words: Life prolongation of BDF1 mice with P388 leukemia, combination with CPA. In kind it is in vivo, mouse (male BDF1). The note with it: for Number of surviving animals: 30 days. How it is done:
Male BDF1 mice having a body weight of 20±2 g, 6 per group, were used. P388 mouse leukemia cells (one week after transplantation) as tumor cells were washed with 0.9% saline and suspended in saline so that the number of the cells reached 5×10^6 /m. The suspension was intraperitoneally administered to the mice at a rate of 0.2 ml (10^6 cells) per mouse.
Twenty-four hours after the transplantation of tumor cells, the malate of formula (I) and cyclophosphamide ([…]) were successively administered intraperitoneally once to the mice, and the life prolongation rate of the mice in each group was determined.
The malate of formula (I) was used after suspending it and Tween 80 at a ratio of 1:5 to saline, and this suspension was diluted with a solution of Tween 80 in the same concentration. CPA, on the other hand, was used as a solution in saline.
CPA (50 mg/kg and 100 mg/kg) and the malate of formula (I) (10 mg/kg and 20 mg/kg) were administered singly or in combination, and the life prolongation rate was determined.

Assay [5] has as its system V79/S. Briefly: Colony formation (proliferation) inhibition, sensitive Chinese hamster cells (A-I Part 1). The class given is cell-based. Conditions: Cricetulus griseus, 216 h. How it is done: (§5) Sensitive cell line V79/S and ADM-resistant cell line V79/ADM of the Chinese hamster were used, and sensitive cell line PLC/S and cholchicin-resistant cell line PLC/Col, as human hepatoma cells.
(§6) The sensitive cell lines (400 cells) or the resistant cell lines (600 cells) were each incubated for 24 hours in 10 ml of Eagle's MEM medium containing 10% bovine serum. Each of the drugs indicated in Table 1 below was dissolved in ethanol, and 50 microliters of the resulting solution was added to the medium. The incubation was further carried out for 9 days. The concentration of the drug which inhibits 50% of the colony formation (proliferation) of the tumor cells was calculated.
(§7) V79/S and V79/ADM were tested by using all of the drugs described above, but PLC/S and PLC/Col were tested by using only the malate of formula (I), adriamycin and peplomycin.
(§8) The concentrations (micrograms/ml) required to inhibit 50% of the proliferation of the tumor cells, expressed by IC50, are shown in Table 1.

The subject of assay [6] is V79/ADM. Briefly: Colony formation (proliferation) inhibition, ADM-resistant Chinese hamster cells (A-I Part 1). The class given is cell-based. Conditions: Cricetulus griseus, 216 h. As to the method:
as §5, §6, §7, §8

The mark [7] stands for this setting: V79/ADM, alone, Table 6, read-out: IC50, anti-cancer agent alone.
The mark [8] stands for this setting: V79/ADM, with compound (I) 3 μg/ml.
Where [9] appears, read: V79/S, alone, Table 6, read-out: IC50, anti-cancer agent alone.
[10] abbreviates: V79/S, with compound (I) 10 μg/ml, read-out: IC50 in combination with compound (I).
[11] abbreviates: V79/S, with compound (I) 10 μg/ml.
Setting [12] is: V79/ADM, with compound (I) 5 μg/ml, read-out: IC50 in combination with compound (I).
Where [13] appears, read: V79/ADM, with compound (I) 5 μg/ml.
[14] abbreviates: read-out: IC50, anti-cancer agent alone.
Setting [15] is: read-out: IC50 in combination with compound (I).

Usually IC50 stands for the concentration needed to halve the response being measured. As to `COc1cc([C@@H]2c3cc4c(cc3[C@@H](O[C@@H]3O[C@@H]5CO[C@@H](C)O[C@H]5[C@H](O)[C@H]3O)[C@H]3COC(=O)[C@H]23)OCO4)cc(OC)c1O` [Etoposide, etoposide], the IC50 in the assay on V79/ADM [1] (setting [7]) was over 20 µg/mL; in the assay with V79/ADM [1] (V79/ADM, with compound (I) 3 μg/ml, read-out: IC50 in combination with compound (I)), 7.4 µg/mL; in the assay on V79/S [2] (setting [9]), 0.27 µg/mL; in the assay with V79/S [2] (setting [10]), 0.098 µg/mL. Further, the results for the Potentiation activity in the assay on V79/ADM [1] (setting [8]) and with V79/S [2] (setting [11]) were 2.7 times and 2.8 times, respectively.

As for `Nc1ccn([C@@H]2O[C@H](CO)[C@@H](O)[C@@H]2O)c(=O)n1` [Ara-C, cytarabin], the concentration for half-maximal inhibition (IC50) in the assay with V79/ADM [1] (setting [7]) was 220 nM; in the assay with V79/ADM [1] (setting [12]) it was 35 nM; in the assay on V79/S [2] (setting [9]), 76 nM; in the assay with V79/S [2] (setting [10]), 54 nM. Moreover, the Potentiation activity with V79/ADM [1] (setting [13]) was found to be 6.3 times; in the assay with V79/S [2] (setting [11]), 1.4 times.

Consider bleomycin [BLM], for which the “IC50, anti-cancer agent alone” value in the assay on V79/ADM [1] (V79/ADM, alone, Table 6) was found to be 0.56 µg/mL; with V79/S [2] (V79/S, alone, Table 6), 2.1 µg/mL. Further, the entries for the “IC50 in combination with compound (I)” value with V79/ADM [1] (setting [8]) and in the assay on V79/S [2] (setting [11]) were 0.0385 µg/mL and 0.01 µg/mL, respectively. Besides, the Potentiation activity in the assay on V79/ADM [1] (setting [8]) is recorded as 14.5 times; with V79/S [2] (setting [11]) it was 202 times. Also, the “Efficacy ratio (rated significant by Fisher's test)” value in assay [3] (1.0 μg/ml) is 2/8.

For `O=P1(N(CCCl)CCCl)NCCCO1` (stereo not drawn) [CPA, cyclophosphamide], the figures for the “MST (medium survival time)” value in assay [4] (CPA 50 mg/kg i.p.) and in assay [4] (CPA 100 mg/kg i.p.) were 20.3 and 24.0, respectively. In addition, the results for the T/C vs control in assay [4] (CPA 50 mg/kg i.p.) and in assay [4] (CPA 100 mg/kg i.p.) were 201% and 238%, respectively. Further, the “T/C vs CPA alone” value in assay [4] (CPA 50 mg/kg i.p. (reference group)) and in assay [4] (CPA 100 mg/kg i.p. (reference group)) was 100% in each case. Besides, the “Number of surviving animals” value in assay [4] (CPA 50 mg/kg i.p.) is 0/6; in assay [4] (CPA 100 mg/kg i.p.), 1/6.

On to `Cc1c2oc3c(C)ccc(C(=O)N[C@@H]4C(=O)N[C@H](C(C)C)C(=O)N5CCC[C@H]5C(=O)N(C)CC(=O)N(C)[C@@H](C(C)C)C(=O)O[C@@H]4C)c3nc-2c(C(=O)N[C@@H]2C(=O)N[C@H](C(C)C)C(=O)N3CCC[C@H]3C(=O)N(C)CC(=O)N(C)[C@@H](C(C)C)C(=O)O[C@@H]2C)c(N)c1=O` [ACD, actinomycin D] (I: T[dV]P[Sar][NMeV] / II: T[dV]P[Sar][NMeV]; ester I:1-I:C, II:1-II:C; linker I:N-II:N via Actinocin(9to1)), for which the IC50 was determined as 0.017 µg/mL (≈ 0.0135 µM) in the assay with V79/S [5]; 0.28 µg/mL (≈ 0.223 µM) in the assay on V79/ADM [6]; 0.28 µg/mL in the assay on V79/ADM [1] (setting [14]); 0.0063 µg/mL with V79/ADM [1] (setting [15]); 0.017 µg/mL in the assay on V79/S [2] (setting [14]); 0.0032 µg/mL with V79/S [2] (setting [15]). Also, the Potentiation activity in the assay with V79/ADM [1] (V79/ADM, with compound (I) 10 μg/ml) came out at 44.4 times; in the assay with V79/S [2] (setting [11]), 5.3 times. Moreover, the “Efficacy ratio (rated significant by Fisher's test)” value in assay [3] (0.01 μg/ml) is 0/8.

Turning to `O=c1[nH]cc(F)c(=O)[nH]1` [Example 5-FU, 5-fluorouracil], the IC50 with V79/ADM [1] (setting [7]) worked out at 7200 nM; in the assay with V79/ADM [1] (setting [12]), 620 nM; in the assay with V79/S [2] (setting [9]), 9700 nM; with V79/S [2] (setting [10]) it was 2100 nM. Besides, the results for the Potentiation activity in the assay on V79/ADM [1] (setting [13]) and in the assay with V79/S [2] (setting [11]) were 11.6 times and 4.6 times, respectively. In assay [3] (10 μg/ml), the “Efficacy ratio (rated significant by Fisher's test)” value is on record as 1/8.

For the compound `N[C@@H](Cc1ccc(N(CCCl)CCCl)cc1)C(=O)O` [MPL, melphalan], the “Efficacy ratio (rated significant by Fisher's test)” value in assay [3] (0.5 μg/ml) is on record as 1/8.

Take `Cc1ncc(CNC(=O)N(CCCl)N=O)c(N)n1` [ACNU, nimustine]: the IC50 with V79/ADM [1] (setting [14]) amounted to 10 µg/mL; in the assay with V79/ADM [1] (setting [15]) it was 3.1 µg/mL; in the assay with V79/S [2] (setting [14]), 7.6 µg/mL; with V79/S [2] (setting [15]) it was 5.4 µg/mL. Also, the results for the Potentiation activity with V79/ADM [1] (setting [13]) and with V79/S [2] (setting [11]) were 3.20 times and 1.4 times, respectively. Moreover, the “Efficacy ratio (rated significant by Fisher's test)” value in assay [3] (2.0 μg/ml) is on record as 3/8.
